From US9402831B2, “Combination therapy of HSP90 inhibitors with BRAF inhibitors” (Synta Pharmaceuticals Corp., priority 2011, dated 2016)
Each block holds one compound with its values, some of them ahead of it.

Legend:
RPMI-7951 melanoma cells [1] = test: Western blotting, RPMI-7951 cells; assay type: cell-based, human; settings: western blot, FIG. 5
Protocol: (§1) Human melanoma cell lines carrying the V600E BRAF mutation (A375, SK-MEL-28, RPMI-7951) and human prostate cancer cells (LNCaP, 22Rv1) were purchased from the American Type Culture Collection (Manassas, Va.) and grown following ATCC recommendations, in the presence of fetal bovine serum (10%), 2 mM L-glutamine and antibiotics (100 IU/ml penicillin and 100 μg/ml streptomycin) purchased from Sigma Aldrich. Cells were maintained at 37° C., 5% CO2 atmosphere.
(§2) Cells, treated with compound for 24 hr, were lysed in RIPA buffer (CST, Danvers, Mass., USA) on ice and clarified by centrifugation. Equal amounts of proteins were resolved by SDS-PAGE and immunoblotted with indicated antibodies. The antigen-antibody complex was visualized and quantitated using an Odyssey system (LI-COR, Lincoln, Nebr., USA).

[2] = tested on: B-raf V600E in melanoma cell line A375; settings: cited from earlier work
[3] = tested on: B-raf mutants in COS cells; settings: cited from earlier work
SK-MEL-5 = test: Cell viability assay (Cell Titer-Glo), SK-MEL-5; assay type: cell-based; settings: Homo sapiens; SK-MEL-5, malignant melanoma, BRAF V600E; read-out: Ganetespib IC50
Protocol: (§3) Cell viability was measured using the Cell Titer-Glo assay (Promega). In brief, cells were plated in 96-well plates in triplicate at optimal seeding density (determined empirically for each cell line) and incubated at 37° C., 5% CO2 atmosphere for 24 hr prior to the addition of drug or vehicle (0.3% DMSO) to the culture medium. At the end of the assay, Cell Titer-Glow was added to the wells per manufactures recommendation, shaken for two minutes and incubated for 10 minutes at room temperature. Luminescence (0.1 sec) was measured with a Victor II microplate reader (Perkin Elmer) and the resulting data were used to calculate cell viability, normalized to vehicle control.

HT-144 = test: Cell viability assay (Cell Titer-Glo), HT-144; assay type: cell-based; settings: Homo sapiens; HT-144, malignant melanoma, BRAF V600E; read-out: Ganetespib IC50
Protocol: as §3

SK-HEP-1 = test: Cell viability assay (Cell Titer-Glo), SK-HEP-1; assay type: cell-based; settings: Homo sapiens, SK-HEP1; SK-HEP-1, carcinoma, BRAF V600E; read-out: Ganetespib IC50
Protocol: as §3

SW982 = test: Cell viability assay (Cell Titer-Glo), SW982; assay type: cell-based; settings: Homo sapiens; SW982, synovial sarcoma, BRAF V600E; read-out: Ganetespib IC50
Protocol: as §3

MZ7-mel = test: Cell viability assay (Cell Titer-Glo), MZ7-mel; assay type: cell-based; settings: Homo sapiens, malignant melanoma, BRAF V600E, read-out: Ganetespib IC50
Protocol: as §3

RPMI-7951 melanoma cells [4] = test: Cell viability assay, RPMI-7951 melanoma cells; assay type: cell-based; settings: Homo sapiens; RPMI-7951 cells; read-out: IC90 cell killing
Protocol: as §1, §3

HTC-C3 = test: Cell viability assay (Cell Titer-Glo), HTC-C3; assay type: cell-based; settings: Homo sapiens; HTC-C3, carcinoma, BRAF V600E; read-out: Ganetespib IC50
Protocol: as §3

SH-4 = test: Cell viability assay (Cell Titer-Glo), SH-4; assay type: cell-based; settings: Homo sapiens; SH-4, malignant melanoma, BRAF V600E; read-out: Ganetespib IC50
Protocol: as §3

A375 melanoma cells = test: Western blotting, A375 cells; assay type: cell-based, human; settings: A375, 24 hr, western blot
Protocol: as §1, §2

K5 = test: Cell viability assay (Cell Titer-Glo), K5; assay type: cell-based; settings: Homo sapiens; K5, carcinoma, BRAF V600E; read-out: Ganetespib IC50
Protocol: as §3

SK-MEL-28 melanoma cells = test: Western blotting, SK-MEL-28 cells; assay type: cell-based, human; settings: SK-MEL-28, 24 hr, western blot, FIG. 1
Protocol: as §1, §2

RVH-421 = test: Cell viability assay (Cell Titer-Glo), RVH-421; assay type: cell-based; settings: Homo sapiens; RVH-421, malignant melanoma, BRAF V600E; read-out: Ganetespib IC50
Protocol: as §3

A375 = test: Cell viability assay (Cell Titer-Glo), A375; assay type: cell-based; settings: Homo sapiens, A-375; A375, malignant melanoma, BRAF V600E; read-out: Ganetespib IC50
Protocol: as §1, §3

MMAC-SF = test: Cell viability assay (Cell Titer-Glo), MMAC-SF; assay type: cell-based; settings: Homo sapiens, malignant melanoma, BRAF V600E, read-out: Ganetespib IC50
Protocol: as §3

A101D = test: Cell viability assay (Cell Titer-Glo), A101D; assay type: cell-based; settings: Homo sapiens, malignant melanoma, BRAF V600E, read-out: Ganetespib IC50
Protocol: as §3

RKO = test: Cell viability assay (Cell Titer-Glo), RKO; assay type: cell-based; settings: Homo sapiens, carcinoma, BRAF V600E, read-out: Ganetespib IC50
Protocol: as §3

SW872 = test: Cell viability assay (Cell Titer-Glo), SW872; assay type: cell-based; settings: Homo sapiens; SW872, liposarcoma, BRAF V600E; read-out: Ganetespib IC50
Protocol: as §3

[5] = tested on: human cancer cells harboring the V600E mutation in BRAF; test: Cell viability, panel of BRAF mutant cancer cell lines; assay type: cell-based; settings: large panel of human cancer cells harboring BRAF V600E; read-out: IC50 across panel
Protocol: as §3

COLO-829 = test: Cell viability assay (Cell Titer-Glo), COLO-829; assay type: cell-based; settings: Homo sapiens; COLO-829, malignant melanoma, BRAF V600E; read-out: Ganetespib IC50
Protocol: as §3

LS-411N = test: Cell viability assay (Cell Titer-Glo), LS-411N; assay type: cell-based; settings: Homo sapiens, carcinoma, BRAF V600E, read-out: Ganetespib IC50
Protocol: as §3

DBTRG-05MG = test: Cell viability assay (Cell Titer-Glo), DBTRG-05MG; assay type: cell-based; settings: Homo sapiens, glioma, BRAF V600E, read-out: Ganetespib IC50
Protocol: as §3

UACC-257 = test: Cell viability assay (Cell Titer-Glo), UACC-257; assay type: cell-based; settings: Homo sapiens; UACC-257, malignant melanoma, BRAF V600E; read-out: Ganetespib IC50
Protocol: as §3

IST-MEL1 = test: Cell viability assay (Cell Titer-Glo), IST-MEL1; assay type: cell-based; settings: Homo sapiens; IST-MEL1, malignant melanoma, BRAF V600E; read-out: Ganetespib IC50
Protocol: as §3

ACN = test: Cell viability assay (Cell Titer-Glo), ACN; assay type: cell-based; settings: Homo sapiens, neuroblastoma, BRAF V600E, read-out: Ganetespib IC50
Protocol: as §3

SMILES: Cn1cnc2c(F)c(Nc3ccc(Br)cc3Cl)c(C(=O)NOCCO)cc21 [AZD6244, reference compound]
- suppression of ERK phosphorylation (RPMI-7951 melanoma cells [1]; RPMI-7951 (overexpress COT), 24 hr): neither the MEK inhibitor AZD6244 nor the BRAF inhibitor PLX-4032 were capable of suppressing ERK phosphorylation

SMILES: C=CCNC1=C2C[C@@H](C)C[C@H](OC)[C@H](O)[C@@H](C)/C=C(\C)[C@H](OC(N)=O)[C@@H](OC)/C=C\C=C(/C)C(=O)NC(=CC1=O)C2=O [Compound 17AAG]
- B-raf degradation rate versus wild type B-raf CHL cells [2]: degraded more rapidly
- degradation of B-raf mutants E586K and L597V ([3]; cells treated with 17AAG): not sensitive to degradation
- degradation of B-raf mutants V600D, G469A, G469E, G596R, G466V, G594V ([3]; transvected into COS cells, versus wild type B-raf): degraded more rapidly than wild type B-raf

- IC50 (SK-MEL-5): 18 nM
- IC50 (HT-144): 6 nM
- IC50 (SK-HEP-1): 9 nM
- IC50 (SW982): 10 nM
- IC50 (A375): 20 nM
- IC50 (SW872): 22 nM
- IC50 [5]: 4 to 40 nM
- IC50 (COLO-829): 5 nM
SMILES: CC(C)c1cc(-c2nnc(O)n2-c2ccc3c(ccn3C)c2)c(O)cc1O [Ganetespib, 3-(2,4-DIHYDROXY-5- ISOPROPYL-PHENYL)-4-(1- METHYL-INDOL-5-YL)-5- HYDROXY-[1,2,4]TRIAZOLE]
- IC50 (MZ7-mel): 26 nM
- IC90 (RPMI-7951 melanoma cells [4]): 10 nM
- IC50 (HTC-C3): 21 nM
- IC50 (SH-4): 12 nM
- MEK and ERK activity (A375 melanoma cells; FIG. 1): loss of MEK and ERK activity
- destabilizing mutant BRAF (A375 melanoma cells; FIG. 1): fully capable of destabilizing mutant BRAF
- Cdc2 stability (A375 melanoma cells; FIG. 2): destabilized Cdc2
- PI3K and mTOR-mediated phosphorylation of AKT and 4EBP1 (A375 melanoma cells; FIG. 2): suppressed
- apoptosis as determined by PARP cleavage (A375 melanoma cells; FIG. 2): resulting in apoptosis
- destabilization of BRAF dimerization partner CRAF (A375 melanoma cells; FIG. 3): able to destabilize
- potency in deactivating/dephosphorylating ERK versus PLX-4032 or AZD6244 (A375 melanoma cells; FIG. 3): greater potency
- IC50 (K5): 11 nM
- MEK and ERK activity (SK-MEL-28 melanoma cells): loss of MEK and ERK activity
- destabilizing mutant BRAF (SK-MEL-28 melanoma cells): fully capable of destabilizing mutant BRAF
- IC50 (RVH-421): 26 nM
- IC50 (MMAC-SF): 31 nM
- IC50 (A101D): 9 nM
- IC50 (RKO): 4 nM
- AKT activity (RPMI-7951 melanoma cells [1]; RPMI-7951, 24 hr): effectively inhibited
- MEK and ERK activity (RPMI-7951 melanoma cells [1]; RPMI-7951, 24 hr): effectively inhibited
- IC50 (LS-411N): 5 nM
- IC50 (DBTRG-05MG): 14 nM
- IC50 (UACC-257): 24 nM
- IC50 (IST-MEL1): 4 nM
- IC50 (ACN): 4 nM
